Laboratory results: patent publication US20230085307A1, “PYRIDAZINONE COMPOUND AND HERBICIDE” (NISSAN CHEMICAL CORPORATION, priority 2019, published 2023)

Tests used:
blackgrass [1] = assay: Test Example 5: herbicidal effect by foliage application, plastic box (Table 20, symbol J); assay type: in vivo, blackgrass (Alopecurus myosuroides); settings: foliage application, AAH 320 g/ha, three weeks after application
Method in brief: (§1)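 Post-emergence foliar test in sterilized diluvial soil. Compound applied as water-diluted emulsion at a predetermined rate to 14-day-old plants; evaluation at three weeks.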

false cleavers = assay: Test Example 4: herbicidal effect by soil treatment (Table 19, symbol Q); assay type: in vivo, false cleavers (Galium spurium); settings: amount of applied herbicide 320 g/ha
Method in brief: (§2)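 Emulsion of test compound, water-diluted to predetermined amount, sprayed on soil after sowing (seed depth ~1.5 cm, sterilized diluvial soil). Greenhouse, 25–30° C. Effect graded at three weeks post-spray.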

corn [2] = assay: Test Example 5: effect on crop by foliage application, plastic box (Table 20, symbol c); assay type: in vivo; settings: AAH 320 g/ha, three weeks after application
Method in brief: as §1

green foxtail [3] = assay: Test Example 4: herbicidal effect by soil treatment (Table 19, symbol G); assay type: in vivo, green foxtail (Setaria viridis); settings: amount of applied herbicide 320 g/ha
Method in brief: as §2

windgrass [4] = assay: Test Example 5: herbicidal effect by foliage application, plastic box (Table 20, symbol L); assay type: in vivo, windgrass (Apera spica-venti); settings: foliage application, AAH 320 g/ha, three weeks after application
Method in brief: as §1

persian speedwell [5] = assay: Test Example 5: herbicidal effect by foliage application, plastic box (Table 20, symbol R); assay type: in vivo, Persian speedwell (Veronica persica); settings: foliage application, AAH 320 g/ha, three weeks after application
Method in brief: as §1

green foxtail [6] = assay: Test Example 5: herbicidal effect by foliage application, plastic box (Table 20, symbol G); assay type: in vivo, green foxtail (Setaria viridis); settings: foliage application, AAH 320 g/ha, three weeks after application
Method in brief: as §1

lambsquarters [7] = assay: Test Example 4: herbicidal effect by soil treatment (Table 19, symbol O); assay type: in vivo, lambsquarters (Chenopodium album); settings: amount of applied herbicide 320 g/ha
Method in brief: as §2

rice flat sedge = assay: Test Example 3: herbicidal effect by foliage application, Wagner pot (Table 18, symbol E); assay type: in vivo, rice flat sedge (Cyperus iria); settings: 320 g/ha
Method in brief: (§3)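 Plants were sown in alluvial soil held under 0.1–0.5 cm standing water and grown 14 days in a greenhouse at 25–30 °C. An emulsifiable formulation, water-diluted to the set dose, was then sprayed onto the foliage, and effects were scored three weeks later using previously defined criteria.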

wild oat [8] = assay: Test Example 5: herbicidal effect by foliage application, plastic box (Table 20, symbol I); assay type: in vivo, wild oat (Avena fatua); settings: foliage application, AAH 320 g/ha, three weeks after application
Method in brief: as §1

barnyard grass [9] = assay: Test Example 5: herbicidal effect by foliage application, plastic box (Table 20, symbol H); assay type: in vivo, barnyard grass (Echinochloa crus-galli); settings: foliage application, AAH 320 g/ha, three weeks after application
Method in brief: as §1

velvetleaf [10] = assay: Test Example 5: herbicidal effect by foliage application, plastic box (Table 20, symbol M); assay type: in vivo, velvetleaf (Abutilon theophrasti); settings: foliage application, AAH 320 g/ha, three weeks after application
Method in brief: as §1

wheat [11] = assay: Test Example 4: effect on crop by soil treatment (Table 19, symbol e); assay type: in vivo; settings: amount of applied herbicide 320 g/ha
Method in brief: as §2

Italian ryegrass [12] = assay: Test Example 4: herbicidal effect by soil treatment (Table 19, symbol K); assay type: in vivo, Italian ryegrass (Lolium multiflorum); settings: amount of applied herbicide 320 g/ha
Method in brief: as §2

redroot pigweed [13] = assay: Test Example 5: herbicidal effect by foliage application, plastic box (Table 20, symbol N); assay type: in vivo, redroot pigweed (Amaranthus retroflexus); settings: foliage application, AAH 320 g/ha, three weeks after application
Method in brief: as §1

chickweed [14] = assay: Test Example 4: herbicidal effect by soil treatment (Table 19, symbol P); assay type: in vivo, common chickweed (Stellaria media); settings: amount of applied herbicide 320 g/ha
Method in brief: as §2

southern crabgrass [15] = assay: Test Example 5: herbicidal effect by foliage application, plastic box (Table 20, symbol F); assay type: in vivo, southern crabgrass (Digitaria ciliaris); settings: foliage application, AAH 320 g/ha, three weeks after application
Method in brief: as §1

barnyard grass [16] = assay: Test Example 3: herbicidal effect by foliage application, Wagner pot (Table 18, symbol H); assay type: in vivo, barnyard grass (Echinochloa crus-galli); settings: 320 g/ha
Method in brief: as §3

redroot pigweed [17] = assay: Test Example 4: herbicidal effect by soil treatment (Table 19, symbol N); assay type: in vivo, redroot pigweed (Amaranthus retroflexus); settings: amount of applied herbicide 320 g/ha
Method in brief: as §2

beet [18] = assay: Test Example 4: effect on crop by soil treatment (Table 19, symbol f); assay type: in vivo; settings: amount of applied herbicide 320 g/ha
From the text: (§4) [Test Example 4] Herbicidal Effect Test by Soil Treatment
(§5) Sterilized diluvial soil was placed in a plastic box having a length of 21 cm, a width of 13 cm, and a depth of 7 cm. The seeds of each of southern crabgrass, green foxtail, barnyard grass, wild oat, blackgrass, Italian ryegrass, windgrass, velvetleaf, redroot pigweed, lambsquarters, chickweed, false cleavers, persian speedwell, corn, soybean, rice, wheat, beet, and rapeseed were sowed in a spot-like manner and covered with the soil having a thickness of about 1.5 cm. Subsequently, the emulsion agent of the compound of the present invention prepared according to Formulation Example 2 was diluted with water so as to achieve a predetermined herbicide amount, and the diluted emulsion agent was uniformly applied to the surface of the soil with a small-sized spray. The plastic box was placed in a greenhouse at 25° C. to 30° C. for growth of the plants. Three weeks after the herbicide application, the effect of the herbicide on each plant was evaluated according to the criteria of Test Example 1.

rapeseed [19] = assay: Test Example 5: effect on crop by foliage application, plastic box (Table 20, symbol g); assay type: in vivo; settings: AAH 320 g/ha, three weeks after application
Method in brief: as §1

lambsquarters [20] = assay: Test Example 5: herbicidal effect by foliage application, plastic box (Table 20, symbol O); assay type: in vivo, lambsquarters (Chenopodium album); settings: foliage application, AAH 320 g/ha, three weeks after application
Method in brief: as §1

windgrass [21] = assay: Test Example 4: herbicidal effect by soil treatment (Table 19, symbol L); assay type: in vivo, windgrass (Apera spica-venti); settings: amount of applied herbicide 320 g/ha
Method in brief: as §2

soybean [22] = assay: Test Example 4: effect on crop by soil treatment (Table 19, symbol d); assay type: in vivo; settings: amount of applied herbicide 320 g/ha
From the text: as §4, §5

barnyard grass [23] = assay: Test Example 4: herbicidal effect by soil treatment (Table 19, symbol H); assay type: in vivo, barnyard grass (Echinochloa crus-galli); settings: amount of applied herbicide 320 g/ha
Method in brief: as §2

blackgrass [24] = assay: Test Example 4: herbicidal effect by soil treatment (Table 19, symbol J); assay type: in vivo, blackgrass (Alopecurus myosuroides); settings: amount of applied herbicide 320 g/ha
Method in brief: as §2

Chinese sprangletop = assay: Test Example 3: herbicidal effect by foliage application, Wagner pot (Table 18, symbol D); assay type: in vivo, chinese sprangletop (Leptochloa chinensis); settings: 320 g/ha
Method in brief: as §3

Italian ryegrass [25] = assay: Test Example 5: herbicidal effect by foliage application, plastic box (Table 20, symbol K); assay type: in vivo, Italian ryegrass (Lolium multiflorum); settings: foliage application, AAH 320 g/ha, three weeks after application
Method in brief: as §1

wheat [26] = assay: Test Example 5: effect on crop by foliage application, plastic box (Table 20, symbol e); assay type: in vivo; settings: AAH 320 g/ha, three weeks after application
Method in brief: as §1

directly sowed rice = assay: Test Example 3: effect on crop by foliage application, Wagner pot (Table 18, symbol b); assay type: in vivo; settings: 320 g/ha
Procedure: [Test Example 3] Herbicidal Effect Test by Foliage Application After alluvial soil was placed into 1/10000 are of Wagner pot, water was poured and mixed to form a submerged condition having a water depth of 0.1 cm to 0.5 cm. Seeds of barnyard grass, Chinese sprangletop, rice flat sedge, and rice were sowed and the pot was placed in a greenhouse at 25° C. to 30° C. for growth of the plants. After 14-day growth of the plants, the emulsion agent of the compound of the present invention prepared according to Formulation Example 2 was diluted with water so as to achieve a predetermined herbicide amount, and the diluted emulsion agent was uniformly applied to a foliage part with a small-sized spray. Three weeks after the herbicide application, the effect of the herbicide on each plant was evaluated according to the criteria of Test Example 1.

velvetleaf [27] = assay: Test Example 4: herbicidal effect by soil treatment (Table 19, symbol M); assay type: in vivo, velvetleaf (Abutilon theophrasti); settings: amount of applied herbicide 320 g/ha
Method in brief: as §2

soybean [28] = assay: Test Example 5: effect on crop by foliage application, plastic box (Table 20, symbol d); assay type: in vivo; settings: AAH 320 g/ha, three weeks after application
Method in brief: as §1

chickweed [29] = assay: Test Example 5: herbicidal effect by foliage application, plastic box (Table 20, symbol P); assay type: in vivo, common chickweed (Stellaria media); settings: foliage application, AAH 320 g/ha, three weeks after application
Method in brief: as §1

persian speedwell [30] = assay: Test Example 4: herbicidal effect by soil treatment (Table 19, symbol R); assay type: in vivo, Persian speedwell (Veronica persica); settings: amount of applied herbicide 320 g/ha
Method in brief: as §2

corn [31] = assay: Test Example 4: effect on crop by soil treatment (Table 19, symbol c); assay type: in vivo; settings: amount of applied herbicide 320 g/ha
Method in brief: as §2

southern crabgrass [32] = assay: Test Example 4: herbicidal effect by soil treatment (Table 19, symbol F); assay type: in vivo, southern crabgrass (Digitaria ciliaris); settings: amount of applied herbicide 320 g/ha
Method in brief: as §2

wild oat [33] = assay: Test Example 4: herbicidal effect by soil treatment (Table 19, symbol I); assay type: in vivo, wild oat (Avena fatua); settings: amount of applied herbicide 320 g/ha
Method in brief: as §2

rapeseed [34] = assay: Test Example 4: effect on crop by soil treatment (Table 19, symbol g); assay type: in vivo; settings: amount of applied herbicide 320 g/ha
Method in brief: as §2

beet [35] = assay: Test Example 5: effect on crop by foliage application, plastic box (Table 20, symbol f); assay type: in vivo; settings: AAH 320 g/ha, three weeks after application
Method in brief: as §1

melting point: 232 to 234 °C
Structure (SMILES): Cc1nn(C)c(=O)c(-c2c(-n3cc(Cl)cn3)sc3ccccc23)c1O [Compound No. 1-097, 5-hydroxy-2,6-dimethyl-4-(2-(4-chloro-1H-pyrazol-1-yl)benzo[b]thiophen-3-yl)pyridazin-3(2H)-one]
J: blackgrass, herbicidal effect (blackgrass [1]): 0 (Herbicidal rate of 5% or less (almost no effect))
herbicidal effect rating, Q: false cleavers (false cleavers): 0 (Herbicidal rate of 5% or less (almost no effect))
c: corn, effect on crop (corn [2]): 0 (Herbicidal rate of 5% or less (almost no effect))
herbicidal effect rating, G: green foxtail (green foxtail [3]): 0 (Herbicidal rate of 5% or less (almost no effect))
L: windgrass, herbicidal effect (windgrass [4]): 0 (Herbicidal rate of 5% or less (almost no effect))
R: persian speedwell, herbicidal effect (persian speedwell [5]): 0 (Herbicidal rate of 5% or less (almost no effect))
G: green foxtail, herbicidal effect (green foxtail [6]): 0 (Herbicidal rate of 5% or less (almost no effect))
herbicidal effect rating, O: lambsquarters (lambsquarters [7]): 4 (Herbicidal rate of 70% or more and less than 90%)
herbicidal effect on E (rice flat sedge), rating 0-5 (rice flat sedge): 4 (Herbicidal rate of 70% or more and less than 90%)
I: wild oat, herbicidal effect (wild oat [8]): 0 (Herbicidal rate of 5% or less (almost no effect))
H: barnyard grass, herbicidal effect (barnyard grass [9]): 0 (Herbicidal rate of 5% or less (almost no effect))
M: velvetleaf, herbicidal effect (velvetleaf [10]): 5 (Herbicidal rate of 90% or more (almost completely withered))
effect rating on crop, e: wheat (wheat [11]): 0 (Herbicidal rate of 5% or less (almost no effect))
herbicidal effect rating, K: Italian ryegrass (Italian ryegrass [12]): 0 (Herbicidal rate of 5% or less (almost no effect))
N: redroot pigweed, herbicidal effect (redroot pigweed [13]): 3 (Herbicidal rate of 40% or more and less than 70%)
herbicidal effect rating, P: chickweed (chickweed [14]): 0 (Herbicidal rate of 5% or less (almost no effect))
F: southern crabgrass, herbicidal effect (southern crabgrass [15]): 0 (Herbicidal rate of 5% or less (almost no effect))
herbicidal effect on H (barnyard grass), rating 0-5 (barnyard grass [16]): 0 (Herbicidal rate of 5% or less (almost no effect))
herbicidal effect rating, N: redroot pigweed (redroot pigweed [17]): 1 (Herbicidal rate of 5% or more and less than 20%)
effect rating on crop, f: beet (beet [18]): 0 (Herbicidal rate of 5% or less (almost no effect))
g: rapeseed, effect on crop (rapeseed [19]): 5 (Herbicidal rate of 90% or more (almost completely withered))
O: lambsquarters, herbicidal effect (lambsquarters [20]): 0 (Herbicidal rate of 5% or less (almost no effect))
herbicidal effect rating, L: windgrass (windgrass [21]): 0 (Herbicidal rate of 5% or less (almost no effect))
effect rating on crop, d: soybean (soybean [22]): 0 (Herbicidal rate of 5% or less (almost no effect))
herbicidal effect rating, H: barnyard grass (barnyard grass [23]): 0 (Herbicidal rate of 5% or less (almost no effect))
herbicidal effect rating, J: blackgrass (blackgrass [24]): 0 (Herbicidal rate of 5% or less (almost no effect))
herbicidal effect on D (Chinese sprangletop), rating 0-5 (Chinese sprangletop): 0 (Herbicidal rate of 5% or less (almost no effect))
K: Italian ryegrass, herbicidal effect (Italian ryegrass [25]): 2 (Herbicidal rate of 20% or more and less than 40%)
e: wheat, effect on crop (wheat [26]): 0 (Herbicidal rate of 5% or less (almost no effect))
effect on crop b (directly sowed rice), rating 0-5 (directly sowed rice): 0 (Herbicidal rate of 5% or less (almost no effect))
herbicidal effect rating, M: velvetleaf (velvetleaf [27]): 1 (Herbicidal rate of 5% or more and less than 20%)
d: soybean, effect on crop (soybean [28]): 0 (Herbicidal rate of 5% or less (almost no effect))
P: chickweed, herbicidal effect (chickweed [29]): 5 (Herbicidal rate of 90% or more (almost completely withered))
herbicidal effect rating, R: persian speedwell (persian speedwell [30]): 0 (Herbicidal rate of 5% or less (almost no effect))
effect rating on crop, c: corn (corn [31]): 0 (Herbicidal rate of 5% or less (almost no effect))
herbicidal effect rating, F: southern crabgrass (southern crabgrass [32]): 0 (Herbicidal rate of 5% or less (almost no effect))
herbicidal effect rating, I: wild oat (wild oat [33]): 0 (Herbicidal rate of 5% or less (almost no effect))
effect rating on crop, g: rapeseed (rapeseed [34]): 0 (Herbicidal rate of 5% or less (almost no effect))
f: beet, effect on crop (beet [35]): 5 (Herbicidal rate of 90% or more (almost completely withered))
